# Starred links: 1 amine or outer side, 2 acyl side, 3 side chain; linkers in the order of their positions; H or OH if unused. Non-standard residues stand in square brackets, D forms with d. Residues, ends and D or L forms follow the SMILES beside them. Groups on a side chain read outwards from the residue. *: point of attachment. C18 diacid = O=C(O)CCCCCCCCCCCCCCCCC(=O)*; γGlu = O=C(O)[C@H](CCC(=O)[*:2])N[*:1]; εLys = N[C@@H](CCCCN[*:1])C(=O)[*:2]; Aib = CC(C)(N)C(=O)O
# Legend:
# [1] = tested on: diet-induced obese (DIO) mice; test: Pharmacodynamic study in DIO mice: IPGTT (intraperitoneal glucose tolerance test); format: in vivo, C57BL/6J male mice; details: glucose 2 g/kg i.p., mean ± SEM; for iAUC, IPGTT Day 31: 30 days; for iAUC, IPGTT Day 15: 14 days
# Description: On the day of the glucose tolerance test, animals were fasted for 4 h. Food was removed and animals were transferred to fresh cages. Animals had access to water but not to food. Tail blood glucose levels were measured, and mice were injected (t=0) with an intra-peritoneal (i.p.) glucose load of 2 g/kg (200 mg/ml glucose solution, dose volume 10 ml/kg). Tail blood glucose levels were measured at times 0, 15, 30, 60, 90, 120 minutes following the i.p. glucose load. Stratification of the animals during the IPGTT was such that for example two mice from group 1 are dosed followed by two mice from group 2, 3, 4, before the next two mice from group 1, 2, 3 etc. were handled. This was to allow for equal distribution of “time of day” throughout all groups.
# human glucagon receptor = human glucagon receptor (Homo sapiens, UniProt P47871); test: cell-based
# [2] = tested on: diet-induced obese (DIO) mice; test: Pharmacodynamic study in DIO mice: body weight and food intake; format: in vivo, C57BL/6J male mice; details: for Absolute BW Day 14 / Change in BW Day 14 / Cumulative food intake Day 14: 14 days; for Cumulative food intake Day 14: n = 2-3
# Description: The purpose of this example is to assess the in vivo effect of select compounds on pharmacodynamic parameters in diet-induced obese (DIO) mice. The animals were treated once daily via subcutaneous injection with a liquid formulation of the test compound to assess effects on body weight, foot intake, and glucose tolerance. For comparison, the known GLP-1R/GIPR co-agonist tirzepatide and a surrogate of the GLP-1R agonist semaglutide were used as references. The semaglutide surrogate has the same pharmacological properties of semaglutide but a slightly modified structure in which the γGlu element of the substituent has been changed from the L-isomer to the D-isomer.
# C57BL/6J male mice were purchased from Jackson Laboratories at approximately 8 weeks of age. Mice were group housed and fed a high-fat, high-sugar diet from Research Diets (D12331). Mice were maintained on this diet for 12 weeks prior to initializing the pharmacology studies. Mice exceeding a measured body weight of 50 grams were considered diet-induced obese (DIO) and included in pharmacology studies. Mice were exposed to a controlled 12 h:12 h light:dark cycle at ambient room temperature (22° C.) with ab libitum access to food and water. Studies were approved by and performed according to the guidelines of the Institutional Animal Care and Use Committee of the University of Cincinnati.
# Animals were dosed once daily, subcutaneously with either vehicle or test compound. All injections occurred during the middle of the light phase at a fixed volume of 2-5 microliters per gram body weight.
# All compounds in the study were formulated in the following buffer: 50 mM phosphate; 70 mM sodium chloride; 0.05% Tween-80, pH 7.4. Dosing solutions were formulated in glass vials and stored at 2-8° C. Dosing solutions were brought to room temperature before dosing and returned to 2-8° C. after dosing.
# DIO mice were distributed into groups (n=8 per group) such that statistical variations in the mean and standard deviations of fat mass and body weight were minimized between groups. The animals were grouped to receive treatment as follows: Vehicle, tirzepatide, semaglutide surrogate or a GLP-1/GIP receptor co-agonists as described herein, where vehicle is 50 mM phosphate, 70 mM sodium chloride; 0.05% Tween-80, pH 7.4. The test compounds were dissolved in the vehicle, to stock concentrations of 100 μM, then diluted 50-200 fold in the vehicle to achieve the desired dosing solution concentrations. Animals were dosed subcutaneously once daily in the morning for each day of treatment with dosing solution at a volume of 2-5 μL per gram of body weight as necessary to achieve the desired dose (eg 0.3 nmol/kg, 1.0 nmol/kg, or 3.0 nmol/kg).
# Body weight (BW) and food intake were measured immediately prior to dosing each day. The percent change in body was calculated individually for each mouse based on initial body weight prior to the first injection.
# mouse GLP-1 receptor = target: T1, mouse GLP-1 receptor (Mus musculus, UniProt O35659)
# T1 sequence (O35659 22-463): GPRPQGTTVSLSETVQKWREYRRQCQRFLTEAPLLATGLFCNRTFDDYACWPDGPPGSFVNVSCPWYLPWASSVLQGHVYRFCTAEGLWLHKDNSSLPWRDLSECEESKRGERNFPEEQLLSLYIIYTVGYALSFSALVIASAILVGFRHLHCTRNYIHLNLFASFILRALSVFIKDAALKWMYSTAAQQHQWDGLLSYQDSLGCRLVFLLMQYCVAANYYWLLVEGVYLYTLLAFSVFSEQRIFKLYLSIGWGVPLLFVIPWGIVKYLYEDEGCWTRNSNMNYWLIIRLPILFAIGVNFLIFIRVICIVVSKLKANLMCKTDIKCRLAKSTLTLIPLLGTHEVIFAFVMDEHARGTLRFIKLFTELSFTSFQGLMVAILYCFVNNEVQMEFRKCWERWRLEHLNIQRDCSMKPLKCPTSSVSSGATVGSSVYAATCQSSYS
# Description: The in vitro functional potency is the measure of target receptor activation in a whole cell assay.
# In vitro functional potency was determined by measuring the response of the target receptor in a reporter gene assay in individual cell lines. […] When the respective receptor is activated, it results in the production of cAMP, which in turn results in expression of the luciferase protein. When assay incubation is completed, luciferase substrate (luciferin) is added resulting in the enzymatic conversion of luciferin to oxyluciferin and producing bioluminescence. The luminescence is measured as the readout for the assay.
# The cells lines used in these assays were BHK cells with BHKTS13 as a parent cell line. The cell lines were derived from a clone containing the CRE luciferase element and were established by further transfection with the respective receptor to obtain the relevant cell line.
# The cells were cultured at 37° C. with 5% CO2 in Cell Culture Medium. They were aliquoted and stored in liquid nitrogen. The cells were kept in continuous culture and were seeded out the day before each assay.
# GLP-1R and GcgR Cell Culture Medium consisted of DMEM medium with 10% FBS, 500 μg/mL G418, and 300 μg/mL hygromycin. GIPR Cell Culture Medium consisted of DMEM medium with 10% FBS, 400 μg/mL G418, and 300 μg/mL hygromycin. Assay Buffer consisted of DMEM w/o phenol red, 10 mM Hepes, 1×Glutamax, 1% ovalbumin, and 0.1% Pluronic F-68 with the addition of HSA at twice the final assay concentration.
# • 1) Cells were plated at 5000 cells/well and incubated overnight in the assay plate. • 2) Cells were washed once in DPBS. • 3) Stocks of the test compounds and reference compounds in concentrations ranging from 100-300 μM were diluted 1:150 in Assay Buffer. Compounds were then diluted 1:10 in column 1 of a 96 deep well dilution plate and then carried across the row creating a 3.5 fold, 12 point dilution curve. • 4) Assay Buffer (50 μl aliquot) with or without HSA was added to each well in the assay plate. • 5) A 50 μl aliquot of compound or blank was transferred from the dilution plate to the assay plate containing the Assay Buffer with or without HSA. • 6) The assay plate was incubated for 3 h in a 5% CO2 incubator at 37° C. 7) The cells were washed once with DPBS. • 8) A 100 μl aliquot of DPBS was added to each well of the assay plate. • 9) A 100 μl aliquot of steadylite plus reagent (light sensitive) was added to each well of the assay plate. • 10) Each assay plate was covered with aluminum foil to protect it from light and shaken at 250 RPM for 30 min at room temperature. • 11) Each assay plate was read in a microtiter plate reader.
# The data from the microtiter plate reader was first regressed in an Excel in order to calculate the x-axis, log scale concentrations based on the individual test compound's stock concentration and the dilutions of the assay. […] The software performs a non-linear regression (log(agonist) vs response). A minimum of two replicates was measured for each sample. The reported values are averages of the replicates.
# [3] = target: T2, mouse glucagon-like peptide 1 receptor (mouse, UniProt O35659 22-463); test: cell-based or functional assay
# T2 sequence (looked up): T1 sequence (O35659 22-463)
# [4] = DIO mice, 0.3 nmol/kg s.c. once daily, 30 days, mean ± SEM
# [5] = DIO mice, 1.0 nmol/kg s.c. once daily, 30 days, mean ± SEM
# [6] = DIO mice, 3.0 nmol/kg s.c. once daily, 10 days, mean ± SEM, n = 8
# [7] = DIO mice, 3.0 nmol/kg s.c. once daily, 30 days, mean ± SEM
# [8] = DIO mice, 0.3 nmol/kg s.c. once daily, mean ± SEM
# [9] = DIO mice, 1.0 nmol/kg s.c. once daily, mean ± SEM
# [10] = DIO mice, 3.0 nmol/kg s.c. once daily, mean ± SEM
# Sequence of human glucagon receptor (P47871 26-477): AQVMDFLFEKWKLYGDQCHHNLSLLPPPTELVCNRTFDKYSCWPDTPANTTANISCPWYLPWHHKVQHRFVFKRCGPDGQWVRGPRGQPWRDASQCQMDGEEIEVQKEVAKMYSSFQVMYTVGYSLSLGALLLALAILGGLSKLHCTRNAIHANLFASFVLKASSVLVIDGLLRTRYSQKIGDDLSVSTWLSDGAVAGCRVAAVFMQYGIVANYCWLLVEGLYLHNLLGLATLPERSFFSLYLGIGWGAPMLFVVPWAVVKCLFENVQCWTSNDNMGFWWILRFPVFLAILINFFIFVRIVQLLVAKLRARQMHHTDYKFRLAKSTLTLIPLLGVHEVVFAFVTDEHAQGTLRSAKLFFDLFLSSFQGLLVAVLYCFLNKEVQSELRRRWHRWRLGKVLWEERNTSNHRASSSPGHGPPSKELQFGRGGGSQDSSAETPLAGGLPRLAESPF
molecule,measurement,setting,value
CC[C@H](C)[C@H](NC(=O)[C@H](CO)NC(=O)[C@H](Cc1ccc(O)cc1)NC(=O)[C@H](CC(=O)O)NC(=O)[C@H](CO)NC(=O)[C@@H](NC(=O)[C@H](Cc1ccccc1)NC(=O)[C@@H](NC(=O)CNC(=O)[C@H](CCC(=O)O)NC(=O)C(C)(C)NC(=O)[C@@H](N)Cc1ccc(O)cc1)[C@@H](C)O)[C@@H](C)O)C(=O)N[C@@H](Cc1ccc(O)cc1)C(=O)N[C@@H](CC(C)C)C(=O)N[C@@H](CC(=O)O)C(=O)N[C@@H](CCCCN)C(=O)N[C@@H](CCC(N)=O)C(=O)N[C@@H](C)C(=O)N[C@@H](C)C(=O)NC(C)(C)C(=O)N[C@@H](CCCCNC(=O)[C@@H](N)CCCCNC(=O)[C@@H](N)CCCCNC(=O)CC[C@H](NC(=O)CCCCCCCCCCCCCCCCC(=O)O)C(=O)O)C(=O)N[C@@H](Cc1ccccc1)C(=O)N[C@H](C(=O)N[C@@H](CC(N)=O)C(=O)N[C@@H](Cc1c[nH]c2ccccc12)C(=O)N[C@@H](CC(C)C)C(=O)N[C@@H](CC(C)C)C(=O)N[C@@H](C)C(=O)NCC(=O)NCC(=O)N1CCC[C@H]1C(=O)N[C@@H](CO)C(=O)N[C@@H](CO)C(=O)NCC(=O)N[C@@H](C)C(=O)N1CCC[C@H]1C(=O)N1CCC[C@H]1C(=O)N1CCC[C@H]1C(=O)N[C@@H](CO)C(N)=O)C(C)C [Compound 9] (H-Y[Aib]EGTFTSDYSIYLDKQAA[Aib]K([εLys-εLys-γGlu-C18 diacid])FVNWLLAGGPSSGAPPPS-NH2; N-terminus assumed),"iAUC, IPGTT Day 31",[1]; 0.3 nmol/kg s.c. once daily,14979 ± 3423 mg·min/dL
same,"iAUC, IPGTT Day 31",[1]; 1.0 nmol/kg s.c. once daily,7714 ± 1722 mg·min/dL
same,"iAUC, IPGTT Day 31",[1]; 3.0 nmol/kg s.c. once daily,4073 ± 1764 mg·min/dL
same,EC50,human glucagon receptor,> 10000 pM
same,Absolute BW Day 0,"[2]; DIO mice, 0.3 nmol/kg group, baseline Day 0 (30-day study), mean ± SEM",66.5 ± 2.6 grams
same,Absolute BW Day 31,[2]; [4],66.9 ± 3.2 grams
same,Change in BW Day 31,[2]; [4],3.4 ± 1.7%
same,Cumulative food intake Day 31,"[2]; DIO mice, 0.3 nmol/kg s.c. once daily, 30 days, mean ± SEM, n = 2",87.4 ± 5.9 grams
same,Performance compared with semaglutide surrogate in all parameters (in words),"[2]; DIO mice, 1.0 nmol/kg and 3.0 nmol/kg doses, 30 days",superior performance to semaglutide surrogate
same,Absolute BW Day 0,"[2]; DIO mice, 1.0 nmol/kg group, baseline Day 0 (30-day study), mean ± SEM",70.0 ± 1.9 grams
same,Absolute BW Day 31,[2]; [5],50.9 ± 2.2 grams
same,Change in BW Day 31,[2]; [5],−23.9 ± 2.6%
same,Cumulative food intake Day 31,"[2]; DIO mice, 1.0 nmol/kg s.c. once daily, 30 days, mean ± SEM, n = 2",60.4 ± 4.5 grams
same,Absolute BW Day 0,"[2]; DIO mice, 3.0 nmol/kg group, baseline Day 0 (10-day study), mean ± SEM, n = 8",63.8 ± 0.8 grams
same,Absolute BW Day 0,"[2]; DIO mice, 3.0 nmol/kg group, baseline Day 0 (30-day study), mean ± SEM",65.8 ± 1.4 grams
same,Cumulative food intake Day 10,"[2]; DIO mice, 3.0 nmol/kg s.c. once daily, 10 days, mean ± SEM, n = 2",8.3 ± 1.0 grams
same,Absolute BW Day 10,[2]; [6],51.3 ± 0.9 grams
same,Change in BW Day 10,[2]; [6],−19.6 ± 0.7%
same,Absolute BW Day 31,[2]; [7],40.0 ± 2.4 grams
same,Change in BW Day 31,[2]; [7],−39.1 ± 3.8%
same,Cumulative food intake Day 31,"[2]; DIO mice, 3.0 nmol/kg s.c. once daily, 30 days, mean ± SEM, n = 2",46.4 ± 6.6 grams
same,"Response on food intake, body weight and glucose tolerance (in words)","[2]; DIO mice, 0.3, 1.0 or 3.0 nmol/kg s.c. daily for 30 days",dose-dependent response
same,EC50,mouse GLP-1 receptor,2.5 pM
Human GLP-1(7-37) (from UniProt P01275 98-128) (ligand),"mGLP-1R, CRE Luc EC50",[3],3.5 pM
Tirzepatide: known GLP-1R/GIPR co-agonist used as reference [reference compound],"iAUC, IPGTT Day 15",[1]; 0.3 nmol/kg s.c. once daily,13005 ± 2962 mg·min/dL
same,"iAUC, IPGTT Day 15",[1]; 1.0 nmol/kg s.c. once daily,10365 ± 3585 mg·min/dL
same,"iAUC, IPGTT Day 15",[1]; 3.0 nmol/kg s.c. once daily,8974 ± 1804 mg·min/dL
same,Absolute BW Day 0,"[2]; DIO mice, 0.3 nmol/kg group, baseline Day 0 (14-day study), mean ± SEM",64.1 ± 1.7 grams
same,Absolute BW Day 14,[2]; [8],58.2 ± 1.9 grams
same,Change in BW Day 14,[2]; [8],−9.4 ± 1.2%
same,Cumulative food intake Day 14,[2]; [8],32.3 ± 1.9 grams
same,Absolute BW Day 0,"[2]; DIO mice, 1.0 nmol/kg group, baseline Day 0 (14-day study), mean ± SEM",63.5 ± 1.6 grams
same,Absolute BW Day 14,[2]; [9],49.8 ± 1.8 grams
same,Change in BW Day 14,[2]; [9],−21.0 ± 1.2%
same,Cumulative food intake Day 14,[2]; [9],18.4 ± 0.7 grams
same,Absolute BW Day 0,"[2]; DIO mice, 3.0 nmol/kg group, baseline Day 0 (14-day study), mean ± SEM",63.6 ± 2.5 grams
same,Absolute BW Day 14,[2]; [10],45.1 ± 2.1 grams
same,Change in BW Day 14,[2]; [10],−29.0 ± 2.4%
same,Cumulative food intake Day 14,[2]; [10],16.4 ± 2.3 grams

# From US20230346961A1, “GLP-1 AND GIP RECEPTOR CO-AGONISTS” (Novo Nordisk A/S, priority 2020, published 2023)
